According to patent publication US20080199489A1, “SKIN TREATMENT FORMULATIONS AND METHOD” (priority 2007, published 2008):

How the values were obtained:
[1] = Ozone output of ozonized formulations tested with a commercial ozone sensor; format: physicochemical; conditions: added to seaweed-containing ozonized formulations
Protocol: Cholecalciferol, vitamin D3, also known as the sunshine vitamin, aids in tissue regeneration and healing. […] For this reason it was determined that a certain amount of vitamin D3 increases the effectiveness of formulations containing seaweeds, especially those containing callophycus serratus.
The mask is used after the water broth cleansing and activating serum activation steps. As for the serum the inventor has observed a synergistic efficacy by using the combination of treatments. Also as for the serum the exact mechanism is yet to be understood, but the mask provides yet a third matrix for the preparation, storage and application of the active ingredients. As for the formulations previously described the mask is prepared from a selection of ingredients form each of the defined categories of teas, Algaes and seaweeds, herbal plant extracts and oils, flower extracts, fruit extracts, vegetable extracts, butters and oils, and finally other additives as indicated in the formulation lists below. […] The mask is prepared from freeze dried and powdered extracts of the indicated ingredients. The water broth described above is also an ingredient in the mask. The other ingredients are added as preservatives, solvents, and viscosity control agents and are not part of the active ingredients, but rather are a delivery system. […]

chronic rosacea = assay: Example 2: treatment of a patient with chronic rosacea; format: in vivo, human; conditions: person, topical
Excerpt: A person suffered from chronic rosacea. Medical practitioner proscribed regular use of a steroidal cortisone anti-inflammatory cream. […] Patient was concerned about side effects of long term cortisone application. […] Improvement however could not be maintained even with regular treatment several times weekly.

[2] = test system: basal cell carcinoma and pre-cancerous inflammation; assay: Example 1: treatment of a patient with basal cell carcinoma and pre-cancerous inflammation; format: in vivo, human
Excerpt: The treatment procedure comprises application of each of the above described formulations in the order of cleansing with the water broth, activating with both the water broth and the activating serum, treatment with the mask formulation that entraps active ingredients against the affected skin and finally sealing and protecting the treated area with the cream. The affected area is first washed using the water broth. Activating serum is then applied to the skin. The water broth solution is put into the dispensing cup of aerosol generating device such as sold under the brand name Dermoxyzone Nebulizing Nanoparticle Infuser™, which infuses the nanoparticle sizes of the ozonated water broth into the epidermal layer. Absorption is optimized due to the activating serum's ability to pull moisture into the epidermis in greater amounts than could be absorbed without application of the activating serum. The Gel is not completely removed before applying the mask. The gel is wiped down with a cotton pad, leaving a residue on the skin. The mask is then applied over the residual gel covered area of the skin. The mixing serum and the powdered mask base are blended in a ratio of one to one, by volume, to form the mask just prior to use. For the treatment of one cheek for example, one tablespoon each of the powder and mixing serum are typically used. […]

In the case of `C=C1CC[C@H](O)C/C1=C/C=C1\CCC[C@]2(C)[C@@H]([C@H](C)CCCC(C)C)CC[C@@H]12` [Cholecalciferol], the “ozone output / amount of ozone released from ozonated formulations” value [1] is reported as “increased the ozone output” and the “ozone output / amount of ozone released from ozonated formulations” value ([1]; listed as cholecalciferol) is reported as “increased significantly”.
With `C[C@]12CCC(=O)C=C1CC[C@@H]1[C@@H]2C(=O)C[C@@]2(C)[C@H]1CC[C@]2(O)C(=O)CO` [1% cortisone, cortisone] the “effect on rosacea inflammation” value (chronic rosacea) was “controlled most inflammation outbreaks”.
In the case of `N#N` [liquid nitrogen], the “adverse effect of treatment” value ([2]; conventional treatment by medical practitioner) is reported as “scarring” and the “outcome of cancer / cancerous tissue” value ([2]; person) is reported as “cancerous tissue reappeared within a few months of treatment”.
